Laboratory results taken from patent publication US20040086901A1, “Database for analyzing gene function and method of analyzing gene function by dspa” (priority 2000, published 2004).

Legend:
Type in all cases: cell-based, mouse
[1] = tested on: NIH3T3 cells overexpressing HSP9O; assay: MTT cell viability, HSP9O overexpressing cells vs parental line; conditions: HSP9O high-expressing cells / parental cell line, 3 to 4 days
Protocol: (§1) With regard to the function-known genes, the genes shown in the left column of Table 2 were used. With regard to the drugs, those shown in Table 1 were dissolved in DMSO to an extent of 100-fold of the maximum concentration for the search of the drugs and used. With regard to the cells, incubated NIH3T3 or ras-NIH3T3 cells were used.
(§2) Full-length cDNA of each function-known genes was incorporated into an expression vector (pRc-CMV, etc.) and transfected into NIH3T3 cells by a common method. Transformed cells were isolated using the resistance to G-418 as an index and the expression of the transfected gene in each cell was investigated by Western blotting method to select a highly expressing line.
(§3) Cell viabilities were measured according to the following procedures.
(§4) 1) From the 2nd to the 11th rows of a 96-well plate were filled with DMEM (50 μl). The 12th row was filled with 100 μl of DMEM.
(§5) 2) The 1st row was filled with 98 μl of DMEM.
(§6) 3) Drugs (2 μl each) were added into the 1st row.
(§7) 4) Continuous double-dilution was conducted from the 1st to the 9th rows. Fifty μl were taken out from the 9th row and discarded. The plate was preserved in a CO2 incubator.
(§8) 5) Cells (each high-expressing cells and the parental cell line) were detached from the medium using a trypsin solution, suspended in 10% CS-DMEM and transferred to a test tube and cell numbers (cell/ml) were counted.
(§9) 6) The cells were diluted to a concentration of 1×10^5 cells/ml, and 50 μl of the cell suspension were added to the 1st to the 11th rows of the plate followed by gently stirring.
(§10) 7) The plate was transferred to the CO2 incubator and incubated for 3 to 4 days.
(§11) 8) MTT (5 mg/ml in PBS) (10 μl) was added to the 1st to the 12th rows of the plate and incubated in the CO2 incubator at 37° C. for 4 hours.
(§12) 9) A reaction stop solution (0.04N HCl in isopropanol) (150 μl) was added followed by mixing well and being allowed to stand at room temperature for about 2 hours.
(§13) 10) Coloration of formazan which was a metabolite of the MTT dye was measured using a microplate reader. The measurement wavelength was 574 nm and the reference wavelength was 655 nm. The 10th and the 11th rows of the plate were 100% controls and the 12th row was a 0% control.
As an index for the sensitivity of highly gene-expressing cells and the parental cell line to various drugs, each of the IC40 values thereof was specified and ratios of the IC40 values were calculated. FIG. 2 and FIG. 3 are the examples where ratios of IC40 values were calculated from a curve showing the dependency on the concentration of the chemical versus the viability. After that, logarithmic values of ratios of IC40 values were calculated from each gene.

[2] = tested on: NIH3T3 cells overexpressing T.Tn; assay: MTT cell viability, T.Tn overexpressing cells vs parental line; conditions: T.Tn high-expressing cells / parental cell line, 3 to 4 days
Protocol: as §1, §2, §3, §4, §5, §6, §7, §8, §9, §10, §11, §12, §13
(§14) As an index for the sensitivity of highly gene-expressing cells and the parental cell line to various drugs, each of the IC40 values thereof was specified and ratios of the IC40 values were calculated. […] After that, logarithmic values of ratios of IC40 values were calculated from each gene.

[3] = tested on: NIH3T3 cells overexpressing p53(wt); assay: MTT cell viability, p53(wt) overexpressing cells vs parental line; conditions: p53(wt) high-expressing cells / parental cell line, 3 to 4 days
Protocol: as §1, §2, §3, §4, §5, §6, §7, §8, §9, §10, §11, §12, §13, §14

[4] = tested on: NIH3T3 cells overexpressing C/EBPa; assay: MTT cell viability, C/EBPa overexpressing cells vs parental line; conditions: C/EBPa high-expressing cells / parental cell line, 3 to 4 days
Protocol: as §1, §2, §3, §4, §5, §6, §7, §8, §9, §10, §11, §12, §13, §14

[5] = tested on: NIH3T3 cells overexpressing RhoA-DN; assay: MTT cell viability, RhoA-DN overexpressing cells vs parental line; conditions: RhoA-DN high-expressing cells / parental cell line, 3 to 4 days
Protocol: as §1, §2, §3, §4, §5, §6, §7, §8, §9, §10, §11, §12, §13, §14

[6] = tested on: NIH3T3 cells overexpressing C/EBPb; assay: MTT cell viability, C/EBPb overexpressing cells vs parental line; conditions: C/EBPb high-expressing cells / parental cell line, 3 to 4 days
Protocol: as §1, §2, §3, §4, §5, §6, §7, §8, §9, §10, §11, §12, §13, §14

[7] = tested on: NIH3T3 cells overexpressing Cip-1; assay: MTT cell viability, Cip-1 overexpressing cells vs parental line; conditions: Cip-1 high-expressing cells / parental cell line, 3 to 4 days
Protocol: as §1, §2, §3, §4, §5, §6, §7, §8, §9, §10, §11, §12, §13, §14

Structure (SMILES)	logarithmic value of ratio of IC40 values [1]	logarithmic value of ratio of IC40 values [2]	logarithmic value of ratio of IC40 values [3]	logarithmic value of ratio of IC40 values [4]	logarithmic value of ratio of IC40 values [5]	logarithmic value of ratio of IC40 values [6]	logarithmic value of ratio of IC40 values [7]
COC(=O)[C@@]1(O)C[C@H]2O[C@]1(C)n1c3ccccc3c3c4c(c5c6ccccc6n2c5c31)C(=O)NC4 [K252a]	0.56	0.00	0.05	−0.48	0.28	0.25	
C=C[C@]1(C)CC[C@@H](C(=C)C)C[C@H]1C(=C)C [b-elemene, β-elemene]	0.05	−0.14	0.00	0.00		0.50	0.00
O=c1c(-c2ccc(O)cc2)coc2cc(O)cc(O)c12 [Genistein, genistein]	0.41	−0.25	0.26	−0.43	0.00	0.19	
O=CN/C=C/c1cc(O)ccc1O [Erbstatin, erbstatin]	0.26	0.48	0.17	0.11	−0.02	0.48	
CN[C@@H]1C[C@H]2O[C@@](C)([C@@H]1OC)n1c3ccccc3c3c4c(c5c6ccccc6n2c5c31)C(=O)NC4 [Staurosporine]	0.22		0.07		0.14	−0.23	
CN(C)CCCn1cc(C2=C(c3c[nH]c4ccccc34)C(=O)NC2=O)c2ccccc21 [GF109203X]		−0.10	0.62	0.00			0.30
COC[C@H]1OC(=O)c2coc3c2[C@@]1(C)C1=C(C3=O)[C@@H]2CCC(=O)[C@@]2(C)C[C@H]1OC(C)=O [Wortmannin, wortmannin]	0.18	0.36	0.40	0.00	0.00	0.34	
Nc1nc2nc[nH]c2c(=S)[nH]1 [6-TG, 6-thioguanine]	0.57	0.00		0.00	0.41		0.47
C[C@@H]1O[C@@H](O[C@H]2C[C@@H](O)[C@]3(CO)[C@H]4[C@H](O)C[C@]5(C)[C@@H](C6=CC(=O)OC6)CC[C@]5(O)[C@@H]4CC[C@]3(O)C2)[C@H](O)[C@H](O)[C@H]1O [Ouabain, ouabain]	0.92	0.28		0.00	0.45	0.00	0.16
CC(C)(C)C(=O)Oc1ccc(S(=O)(=O)Nc2ccccc2C(=O)NCC(=O)O)cc1 [compound 5046]	0.52					0.17	−0.14
C=C[C@@]1(C)CC(=O)[C@]2(O)[C@@]3(C)[C@@H](O)CCC(C)(C)[C@@H]3[C@H](O)[C@H](OC(C)=O)[C@@]2(C)O1 [Forskolin, forskolin]	0.94	0.53	0.98	0.00	−0.36	0.93	
